Among the test systems are K-562 leukemia; UACC-62 melanoma; HCT-15 colon; SNB-19 CNS; SK-MEL-5 melanoma; PC-3 prostate; UACC-257 melanoma; MDA-N; SF-539 CNS; LOX IMVI melanoma; SR leukemia; NCI-H522 lung; HOP-92 NSCLC; SNB-75 CNS; U251 CNS; HL-60(TB) leukemia; OVCAR-3 ovarian; HOP-62 NSCLC; HT29 colon; NCI-H23 lung.
Common to all, as to assay: NCI anticancer screen, dose series, 48 h

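Tested at 5 concentrations; 48 h exposure; 96-well plates; endpoints linearly interpolated, else capped at highest concentration. TGI: concentration producing complete growth inhibition.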 Bounds are passed on as bounds.

Turning to `O=C1OC(C2Cc3ccc4ccccc4c3C2=O)c2ccccc21` (stereo not drawn), the TGI in the experiment with K-562 leukemia is more than 100 µM; in the experiment with UACC-62 melanoma it was more than 100 µM; in the experiment on HCT-15 colon, more than 100 µM; in the experiment on SNB-19 CNS, 92.6 µM; with SK-MEL-5 melanoma, 98.2 µM; in the experiment with PC-3 prostate, more than 100 µM. Moreover, the TGI is more than 100 µM with UACC-257 melanoma; more than 100 µM in the experiment with MDA-N; 56.5 µM with SF-539 CNS; more than 100 µM with LOX IMVI melanoma; more than 100 µM in the experiment on SR leukemia; more than 100 µM in the experiment on NCI-H522 lung. In addition, the TGI in the experiment on HOP-92 NSCLC was more than 100 µM; with SNB-75 CNS, more than 100 µM; with U251 CNS, more than 100 µM; with HL-60(TB) leukemia, more than 100 µM; in the experiment with OVCAR-3 ovarian, 98.1 µM.

For `O=C(/C=C/c1ccccc1)Oc1ccc(C(=O)/C=C/c2ccccc2)cc1`, the TGI is more than 29.8 µM with K-562 leukemia; 17.7 µM in the experiment on UACC-62 melanoma; 21.6 µM in the experiment on HOP-62 NSCLC; 17.3 µM with HCT-15 colon; 38.5 µM in the experiment on SNB-19 CNS; 37 µM with SK-MEL-5 melanoma. Further, the TGI is more than 64.9 µM with PC-3 prostate; 17.7 µM with HT29 colon; 20.3 µM with UACC-257 melanoma; 12.6 µM with MDA-N; 22.4 µM in the experiment with NCI-H23 lung; 22.3 µM in the experiment with SF-539 CNS. The TGI in the experiment with LOX IMVI melanoma stood at 17.7 µM; in the experiment with SR leukemia, 6.82 µM; in the experiment with NCI-H522 lung, 23.6 µM; with HOP-92 NSCLC, 39 µM; in the experiment on SNB-75 CNS, 19.8 µM; in the experiment on HL-60(TB) leukemia, 8.2 µM. This molecule also came in with a TGI with OVCAR-3 ovarian of 16 µM.

`NS(=O)(=O)c1ccc(NC(=S)/N=C/C2=C(O)c3ccccc3C2=O)cc1`: the TGI in the experiment with K-562 leukemia, in the experiment on UACC-62 melanoma, in the experiment with HOP-62 NSCLC, with HCT-15 colon, in the experiment on SNB-19 CNS and in the experiment with SK-MEL-5 melanoma was more than 100 µM in each case. Also, the TGI in the experiment with PC-3 prostate, in the experiment with UACC-257 melanoma, in the experiment with MDA-N, in the experiment on NCI-H23 lung, in the experiment on SF-539 CNS and in the experiment on LOX IMVI melanoma was more than 100 µM throughout. The TGI in the experiment with SR leukemia is more than 100 µM; in the experiment on NCI-H522 lung, more than 100 µM; with HOP-92 NSCLC, more than 100 µM; in the experiment on SNB-75 CNS it was 76.4 µM; in the experiment on U251 CNS, more than 100 µM; in the experiment on HL-60(TB) leukemia, more than 100 µM. The TGI in the experiment with OVCAR-3 ovarian is more than 100 µM.

`O=C1NC(N2CCOCC2)=N/C1=C\c1ccco1`: the TGI in the experiment on UACC-62 melanoma, in the experiment with HOP-62 NSCLC, in the experiment on HCT-15 colon, in the experiment on SNB-19 CNS, in the experiment on SK-MEL-5 melanoma and in the experiment on PC-3 prostate was more than 100 µM each time. For the same molecule, the TGI in the experiment with HT29 colon, in the experiment with UACC-257 melanoma, in the experiment with MDA-N, in the experiment with NCI-H23 lung, in the experiment on SF-539 CNS and in the experiment with LOX IMVI melanoma was more than 100 µM each time. The TGI in the experiment on SR leukemia, in the experiment on NCI-H522 lung, with HOP-92 NSCLC, in the experiment on SNB-75 CNS, with U251 CNS and in the experiment on HL-60(TB) leukemia was more than 100 µM in each case. In the experiment with OVCAR-3 ovarian, this molecule displayed a TGI of more than 100 µM.

Turning to `C/C(=N\N=C1/C(=O)OC(c2ccccc2)=C1C(=O)c1ccccc1)c1ccc([N+](=O)[O-])cc1`, the TGI was more than 100 µM with K-562 leukemia; more than 100 µM with UACC-62 melanoma; more than 100 µM with HOP-62 NSCLC; 67.6 µM in the experiment with HCT-15 colon; more than 100 µM in the experiment with SNB-19 CNS; more than 100 µM with SK-MEL-5 melanoma. Besides, the TGI with PC-3 prostate, in the experiment with HT29 colon, in the experiment on UACC-257 melanoma, with MDA-N, with NCI-H23 lung and with SF-539 CNS was more than 100 µM each time. Besides, the TGI with LOX IMVI melanoma was more than 100 µM; with SR leukemia, 34.6 µM; in the experiment on NCI-H522 lung, 83.5 µM; in the experiment on HOP-92 NSCLC, 83.3 µM; in the experiment on U251 CNS, more than 100 µM; in the experiment on HL-60(TB) leukemia, more than 100 µM. The same molecule came in with a TGI in the experiment with OVCAR-3 ovarian of more than 100 µM.

With `C[C@H](CCC(=O)O)[C@H]1CC[C@H]2[C@@H]3C(=O)C[C@@H]4C[C@H](O)CC[C@]4(C)[C@H]3C[C@H](O)[C@]12C`, the TGI with K-562 leukemia, in the experiment on UACC-62 melanoma, in the experiment on HOP-62 NSCLC, in the experiment on HCT-15 colon, in the experiment on SNB-19 CNS and in the experiment on PC-3 prostate was more than 100 µM throughout. The TGI in the experiment with HT29 colon, in the experiment with UACC-257 melanoma, in the experiment with MDA-N, with NCI-H23 lung, in the experiment on SF-539 CNS and with LOX IMVI melanoma was more than 100 µM throughout. Besides, the TGI with SR leukemia, in the experiment with NCI-H522 lung, with HOP-92 NSCLC, with SNB-75 CNS, with U251 CNS and in the experiment on HL-60(TB) leukemia was more than 100 µM throughout.

As to `C=CCc1cc(-c2nc(=S)[nH][nH]2)ccc1N=NNc1ccc(C(=O)O)cc1`, the TGI in the experiment on K-562 leukemia is more than 100 µM; in the experiment on HOP-62 NSCLC, more than 100 µM; with HCT-15 colon it was more than 100 µM; in the experiment on SNB-19 CNS, more than 100 µM; in the experiment on SK-MEL-5 melanoma, 60.1 µM; in the experiment on PC-3 prostate, more than 100 µM. Moreover, the TGI in the experiment on HT29 colon, in the experiment with UACC-257 melanoma, in the experiment on MDA-N, in the experiment with NCI-H23 lung, in the experiment on LOX IMVI melanoma and with SR leukemia was more than 100 µM in each case. Besides, the TGI in the experiment on NCI-H522 lung, in the experiment on HOP-92 NSCLC, in the experiment with SNB-75 CNS, in the experiment with U251 CNS, in the experiment with HL-60(TB) leukemia and in the experiment with OVCAR-3 ovarian was more than 100 µM each time.

On to `C=CCn1c(=O)c(C(=O)Nc2nc(C34CC5CC(CC(C5)C3)C4)cs2)c(O)c2ccccc21`, for which the TGI in the experiment on K-562 leukemia, in the experiment on HOP-62 NSCLC, in the experiment on HCT-15 colon, in the experiment on SNB-19 CNS, in the experiment with SK-MEL-5 melanoma and with PC-3 prostate was more than 100 µM in each case. In addition, the TGI with HT29 colon is more than 100 µM; in the experiment with UACC-257 melanoma, 22.4 µM; in the experiment on MDA-N, more than 100 µM; with NCI-H23 lung, more than 100 µM; in the experiment on SF-539 CNS, more than 100 µM; with LOX IMVI melanoma it was more than 100 µM. Further, the TGI in the experiment with SR leukemia is more than 100 µM; in the experiment with NCI-H522 lung, more than 100 µM; in the experiment with HOP-92 NSCLC, 84.4 µM; in the experiment with SNB-75 CNS, more than 100 µM; in the experiment on U251 CNS it was more than 100 µM; in the experiment with HL-60(TB) leukemia, 65.6 µM. The molecule further came in with a TGI in the experiment on OVCAR-3 ovarian of more than 100 µM.
